Values of other authors as cited in patent publication US10363219B2, “Method of preparing albumin nanoparticle carrier wrapping taxane drug” (Zhejiang Academy of Forestry, priority 2016, dated 2019).

Settings: relative to paclitaxel

CC(=O)O[C@@]12CO[C@@H]1C[C@H](O)[C@@]1(C)C(=O)[C@H](O)C3=C(C)[C@@H](OC(=O)[C@H](O)[C@@H](NC(=O)OC(C)(C)C)c4ccccc4)C[C@@](O)([C@@H](OC(=O)c4ccccc4)[C@H]21)C3(C)C [Docetaxel]
cytotoxic effect, times of that of paclitaxel: 1.3-12 times
